Among the data in PubChem BioAssay AID651630 (Sanford-Burnham Center for Chemical Genomics, 2012) are IC50 cytotoxicity (DAPI nuclear signal decrease) and IC50 values, retold here.

The test system of one assay is DAPI. In words: triacylglycerol accumulation inhibitor potency, dose response, cell-based, panel, Nile Red and DAPI fluorescence, H9c2 (AID 651630).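 Further: cells exposed to compound overnight before fixation and staining.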 To be noted: H9c2 cells, DAPI nuclear fluorescence (cytotoxicity counter-readout), oleic acid.
The subject of another assay is TAG. The assay is described as above. The note with it: H9c2 cells, Nile Red TAG fluorescence, oleic acid.

The structures appear in SMILES notation. Calls of active or inactive are those of the source.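 How the source made its calls: active means lipid-stain IC50 at or below a set limit, with nuclear-stain toxicity IC50 at least five times higher; inactive means the rest.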

In the case of `COc1ccccc1-c1cc(C(F)(F)F)nc(S(=O)(=O)CCCC(=O)NC(C)C)n1`, the values for the IC50 cytotoxicity (DAPI nuclear signal decrease) in the assay with DAPI (mean of runs), in the assay with DAPI (run 1) and with DAPI (run 2) were 18.4 µM (inactive), 19.9 µM and 17 µM, respectively. For the same molecule, the IC50 in the assay on TAG (mean of runs) was 11.2 µM; in the assay with TAG (run 1) it was 13.5 µM; with TAG (run 2) it was 8.8 µM.

Regarding `CCN(CC)CCC(c1ccc2c(c1)OCO2)c1c(OC)cc(OC)c2c(-c3ccccc3)cc(=O)oc12` (centres undefined), the IC50 cytotoxicity (DAPI nuclear signal decrease) with DAPI (mean of runs) is > 25 µM (inactive); in the assay with DAPI (run 1), greater than 25 µM; in the assay on DAPI (run 2), greater than 25 µM. For the same molecule, the IC50 in the assay with TAG (mean of runs) is > 25 µM (inactive); in the assay on TAG (run 1), greater than 25 µM; in the assay on TAG (run 2) it was greater than 25 µM.

In the case of `CSc1nc(N(C)NC(=O)c2ccc(Cl)cc2)c2ccccc2n1`, the IC50 cytotoxicity (DAPI nuclear signal decrease) in the assay on DAPI (mean of runs) is > 25 µM (inactive); with DAPI (run 1), greater than 25 µM; in the assay with DAPI (run 2) it was greater than 25 µM. Also, the IC50 with TAG (mean of runs) is > 25 µM (inactive); in the assay with TAG (run 1), greater than 25 µM; in the assay with TAG (run 2), greater than 25 µM.

In the case of `CCN(C(=O)COC(=O)c1cc(-c2ccccc2)nc2c1c(C)nn2-c1ccc(C)cc1)C1CCS(=O)(=O)C1` (centres undefined), the values for the IC50 cytotoxicity (DAPI nuclear signal decrease) in the assay on DAPI (mean of runs), in the assay with DAPI (run 1) and in the assay with DAPI (run 2) were > 25 µM (inactive), greater than 25 µM and greater than 25 µM, respectively. The IC50 with TAG (mean of runs) is > 25 µM (inactive); in the assay with TAG (run 1) it was greater than 25 µM; in the assay on TAG (run 2), greater than 25 µM.

On to `CC1(C)Cc2c(C#N)c(SCC(=O)c3ccccc3)nc(N3CCOCC3)c2CS1`, for which the IC50 cytotoxicity (DAPI nuclear signal decrease) with DAPI (mean of runs) was > 25 µM (inactive); with DAPI (run 1), greater than 25 µM; in the assay with DAPI (run 2), greater than 25 µM. Also, the values for the IC50 in the assay with TAG (mean of runs), in the assay with TAG (run 1) and in the assay on TAG (run 2) were 19.3 µM (inactive), 19.5 µM and 19.1 µM, respectively.

Regarding `CCCN(CCC)CCNC(=O)c1cc2c(=O)n(CC)c3ccccc3c2s1`, the IC50 cytotoxicity (DAPI nuclear signal decrease) was > 25 µM (inactive) in the assay with DAPI (mean of runs), greater than 25 µM with DAPI (run 1) and greater than 25 µM in the assay with DAPI (run 2). Further, the figures for the IC50 with TAG (mean of runs), in the assay with TAG (run 1) and in the assay on TAG (run 2) were > 25 µM (inactive), greater than 25 µM and greater than 25 µM, respectively.

With `CCN1CCN(Cc2ccc(NC(=O)c3cc(NC(=O)C(=O)c4c[nH]c5ccccc45)cc(OC)c3)cc2C(F)(F)F)CC1`, the IC50 cytotoxicity (DAPI nuclear signal decrease) in the assay on DAPI (mean of runs) is 23.4 µM (inactive); with DAPI (run 1), 23.4 µM; in the assay on DAPI (run 2), 23.4 µM. In addition, the results for the IC50 in the assay on TAG (mean of runs), in the assay with TAG (run 1) and in the assay with TAG (run 2) were 5.76 µM, 5.58 µM and 5.93 µM, respectively.

`COc1ccc(CCn2c(-n3nc(C)cc3C)nc3c2c(=O)[nH]c(=O)n3C)cc1`: the IC50 cytotoxicity (DAPI nuclear signal decrease) was > 25 µM (inactive) with DAPI (mean of runs), greater than 25 µM with DAPI (run 1) and greater than 25 µM in the assay on DAPI (run 2). Further, the values for the IC50 in the assay with TAG (mean of runs), with TAG (run 1) and with TAG (run 2) were > 25 µM (inactive), greater than 25 µM and greater than 25 µM, respectively.

For `Nc1c(C(=O)Nc2ccccc2)c2nc3ccccc3nc2n1CCCN1CCOCC1`, the IC50 cytotoxicity (DAPI nuclear signal decrease) with DAPI (run 1) and with DAPI (run 2) was greater than 25 µM in each case. The IC50 with TAG (mean of runs) was 4.64 µM; in the assay with TAG (run 1), 4.97 µM; with TAG (run 2) it was 4.31 µM.

Consider `COc1ccc(OC)c(N(CCN2C(=O)c3ccccc3C2=O)C(=O)CCl)c1`, for which the IC50 cytotoxicity (DAPI nuclear signal decrease) in the assay with DAPI (mean of runs) is > 25 µM (inactive); in the assay on DAPI (run 1) it was greater than 25 µM; in the assay with DAPI (run 2), greater than 25 µM. Also, the results for the IC50 in the assay with TAG (mean of runs), with TAG (run 1) and in the assay with TAG (run 2) were > 25 µM (inactive), greater than 25 µM and greater than 25 µM, respectively.

One may read the IC50 as the midpoint of a concentration-inhibition curve.
